Measurements as given in patent US20260317299A1, “PIKFYVE PROTEIN KINASE DEGRADATION AGENT AND USE THEREOF” (Shanghai Institute of Organic Chemistry, Chinese Academy of …, priority 2023, published 2026).

Molecular target: T1, PIKfyve (Homo sapiens, UniProt Q9Y2I7)
T1 construct: endogenous in cells; host or cells: VCaP
Assay: Degradation of PIKfyve proteins in VCaP tumor cells (24 h, Western blot)
Assay type: cell-based
Conditions: 37° C., compared with DMSO control, WB, read-out: DC50 (concentration that achieves 50% degradation activity)
In short: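 VCaP cells (5×10^6 cells/ml) treated with a range of compound concentrations at 37° C for 24 h, then lysed in SDS buffer. PIKfyve level measured by Western blot with GAPDH as loading control and ECL detection. DC50 is the concentration giving 50% degradation relative to DMSO control.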

T1 sequence (Q9Y2I7 whole entry): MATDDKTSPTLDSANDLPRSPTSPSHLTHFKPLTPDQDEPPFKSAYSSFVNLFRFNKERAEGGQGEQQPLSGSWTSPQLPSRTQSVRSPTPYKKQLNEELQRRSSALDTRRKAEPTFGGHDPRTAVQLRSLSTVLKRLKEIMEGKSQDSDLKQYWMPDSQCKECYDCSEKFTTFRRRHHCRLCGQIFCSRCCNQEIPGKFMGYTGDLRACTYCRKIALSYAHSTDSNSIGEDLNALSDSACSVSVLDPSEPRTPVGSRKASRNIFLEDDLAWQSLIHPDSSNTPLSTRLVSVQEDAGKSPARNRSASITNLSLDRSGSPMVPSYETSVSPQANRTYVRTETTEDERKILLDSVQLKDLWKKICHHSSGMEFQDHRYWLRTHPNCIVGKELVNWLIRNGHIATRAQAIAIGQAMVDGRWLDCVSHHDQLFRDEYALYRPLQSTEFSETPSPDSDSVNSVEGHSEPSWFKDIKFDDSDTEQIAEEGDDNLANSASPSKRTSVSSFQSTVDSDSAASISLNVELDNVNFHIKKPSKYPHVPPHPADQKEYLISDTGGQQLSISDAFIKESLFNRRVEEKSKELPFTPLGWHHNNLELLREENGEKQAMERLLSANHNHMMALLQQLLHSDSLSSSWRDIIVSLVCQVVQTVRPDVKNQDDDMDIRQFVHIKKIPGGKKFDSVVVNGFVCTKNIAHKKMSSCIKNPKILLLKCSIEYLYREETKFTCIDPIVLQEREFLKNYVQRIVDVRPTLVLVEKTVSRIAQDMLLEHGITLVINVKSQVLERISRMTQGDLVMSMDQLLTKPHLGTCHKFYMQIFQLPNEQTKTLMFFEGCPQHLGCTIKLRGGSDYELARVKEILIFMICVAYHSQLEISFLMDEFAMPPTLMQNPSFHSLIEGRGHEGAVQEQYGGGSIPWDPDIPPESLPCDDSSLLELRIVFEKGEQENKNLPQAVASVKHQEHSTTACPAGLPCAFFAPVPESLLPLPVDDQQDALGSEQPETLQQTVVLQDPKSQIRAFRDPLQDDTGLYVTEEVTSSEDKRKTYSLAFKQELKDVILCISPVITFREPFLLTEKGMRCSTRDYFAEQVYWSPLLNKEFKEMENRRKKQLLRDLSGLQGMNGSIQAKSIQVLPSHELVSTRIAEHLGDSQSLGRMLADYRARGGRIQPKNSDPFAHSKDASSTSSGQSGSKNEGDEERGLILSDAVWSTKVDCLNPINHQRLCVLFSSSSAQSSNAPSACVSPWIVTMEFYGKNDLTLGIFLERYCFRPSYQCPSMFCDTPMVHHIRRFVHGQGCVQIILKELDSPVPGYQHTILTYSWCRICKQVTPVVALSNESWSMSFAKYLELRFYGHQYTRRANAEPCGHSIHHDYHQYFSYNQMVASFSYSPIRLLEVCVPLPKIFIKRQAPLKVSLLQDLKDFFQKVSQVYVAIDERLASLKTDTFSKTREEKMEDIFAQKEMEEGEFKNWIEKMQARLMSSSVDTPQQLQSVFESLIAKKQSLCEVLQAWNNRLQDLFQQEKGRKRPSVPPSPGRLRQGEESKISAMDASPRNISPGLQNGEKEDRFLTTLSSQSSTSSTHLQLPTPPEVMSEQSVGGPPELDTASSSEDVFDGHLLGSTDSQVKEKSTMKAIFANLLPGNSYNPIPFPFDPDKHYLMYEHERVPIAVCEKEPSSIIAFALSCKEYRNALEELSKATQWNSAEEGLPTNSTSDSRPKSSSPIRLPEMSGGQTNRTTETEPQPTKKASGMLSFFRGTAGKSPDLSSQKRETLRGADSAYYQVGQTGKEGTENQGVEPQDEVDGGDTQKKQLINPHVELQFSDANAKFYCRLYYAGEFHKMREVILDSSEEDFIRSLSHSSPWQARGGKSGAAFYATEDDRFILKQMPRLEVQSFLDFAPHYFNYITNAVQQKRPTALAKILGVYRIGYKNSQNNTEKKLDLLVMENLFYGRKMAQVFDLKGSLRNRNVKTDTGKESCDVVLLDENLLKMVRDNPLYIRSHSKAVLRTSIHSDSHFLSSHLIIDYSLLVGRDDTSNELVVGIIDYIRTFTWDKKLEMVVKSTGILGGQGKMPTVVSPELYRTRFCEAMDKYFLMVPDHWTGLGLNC

- DC50: 0.1 to 10 µM
SMILES: Cc1cccc(-c2ccn(-c3cc(N4CCOCC4)nc(Oc4ccc(N5CCN(CC6CCN(c7cc8c(cc7F)C(=O)N(C7CCC(=O)NC7=O)C8=O)CC6)CC5)cc4)n3)n2)c1 (stereo not shown) [Example 96, 2-(2,6-Dioxopiperidin-3-yl)-5-fluoro-6-(4-((4-(4-((4-morpholino-6-(3-(m-tolyl)-1H-pyrazol-1-yl)pyrimidin-2-yl)oxy)phenyl)piperazin-1-yl)methyl)piperidin-1-yl)isoindoline-1,3-dione]
